Experimental data as given in PMC8948292, “Combining PEGylated mito-atovaquone with MCT and Krebs cycle redox inhibitors as a potential strategy to abrogate tumor cell proliferation” (Scientific Reports, 2022).
pIC50: −log10 of the molar value.

Test system: mitochondrial respiration (OCR) in intact MiaPaCa-2 cells
Experiment: Intact cell mitochondrial respiration (basal OCR), Seahorse XF-96
Type: cell-based, human
In short: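 MiaPaCa-2 cells were treated 24 h with Mito-PEG-ATO analogs, and OCR was read on a Seahorse XF-96; basal respiration was taken in intact cells. For complex I, permeabilized cells received 10 mM pyruvate, 1.5 mM malate and 10 mM malonate; for complex III, 0.5 mM duroquinol, 1 µM rotenone and 10 mM malonate, both in mannitol/sucrose buffer. IC50 values were derived from the OCR data.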

With `O=C1C(OCCOCCOCCOCCOCC[P+](c2ccccc2)(c2ccccc2)c2ccccc2)=C([C@H]2CC[C@H](c3ccc(Cl)cc3)CC2)C(=O)c2ccccc21.[Br-]` [Mito-PEG5-ATO, [14-((3-(trans-4-(4-chlorophenyl)cyclohexyl)-1,4-dioxo-1,4-dihydronaphthalen-2-yl)oxy)-3,6,9,12-tetraoxatetradecyl]triphenylphosphonium bromide] the “OCR (pmol/min/µg protein)” value (0.003 µM, 24 h treatment, intact MiaPaCa-2 cells, baseline OCR, mean, n=4) was 13.36 pmol/min/µg protein, the “OCR (basal, intact cell mitochondrial respiration)” value (0.01 µM, 24 h treatment, intact MiaPaCa-2 cells, mean, n=4) was 12.51 pmol/min/µg protein and the “OCR (basal, intact cell mitochondrial respiration)” value (0.03 µM, 24 h treatment, intact MiaPaCa-2 cells, mean, n=4) was 9.91 pmol/min/µg protein. The “OCR (basal, intact cell mitochondrial respiration)” value (0.05 µM, 24 h treatment, intact MiaPaCa-2 cells, mean, n=4) was 9.30 pmol/min/µg protein, the “OCR (basal, intact cell mitochondrial respiration)” value (0.075 µM, 24 h treatment, intact MiaPaCa-2 cells, mean, n=4) was 8.05 pmol/min/µg protein and the “OCR (basal, intact cell mitochondrial respiration)” value (0.1 µM, 24 h treatment, intact MiaPaCa-2 cells, mean, n=4) was 5.43 pmol/min/µg protein. The “OCR (basal, intact cell mitochondrial respiration)” value (0.3 µM, 24 h treatment, intact MiaPaCa-2 cells, mean, n=4) was 0.36 pmol/min/µg protein, the “OCR (basal, intact cell mitochondrial respiration)” value (0.5 µM, 24 h treatment, intact MiaPaCa-2 cells, mean, n=4) was 1.83 pmol/min/µg protein and the “OCR (basal, intact cell mitochondrial respiration)” value (1 µM, 24 h treatment, intact MiaPaCa-2 cells, mean, n=4) was 1.40 pmol/min/µg protein. The “OCR (basal, intact cell mitochondrial respiration)” value (3 µM, 24 h treatment, intact MiaPaCa-2 cells, mean, n=4) was 0.84 pmol/min/µg protein, the “OCR (basal, intact cell mitochondrial respiration)” value (10 µM, 24 h treatment, intact MiaPaCa-2 cells, mean, n=4) was 0.55 pmol/min/µg protein and the pIC50 (Homo sapiens, MIA PaCa-2, 24 h, read-out: IC50, inhibition of basal OCR in intact cells) was 7.24.
